From patent US20130252286A1, “TRANSFORMANT OF YEAST OF GENUS SCHIZOSACCHAROMYCES, AND METHOD FOR PRODUCING SAME” (ASAHI GLASS COMPANY, LIMITED, priority 2010, published 2013) come the findings set out here.

The target of data set [1] is T1, crude AaBGL1 (Aspergillus aculeatus, UniProt P48825). The data set is described as follows: Inhibition by various sugar. The data set is classed as biochemical. Set-up: P3 secretion signal (N, cleaved yes); made in house; culture supernatant, ammonium sulfate treatment and ultrafiltration, crude enzyme. The conditions noted are these: 1 mM pNPG; for inhibition of crude AaBGL1 by the sugar (in words): 0.1 to 10 mM sugar. On the procedure:
To 10 μl of 20 mM p-nitrophenyl-β-D-glucoside (hereinafter abbreviated as pNPG), 10 μl of 1M sodium acetate buffer solution (pH 4.5) and 130 μl of water were added, and then 50 μl of the diluted enzyme sample was introduced for reacting them at 37° C. for 10 minutes. 100 μl of the reaction mixture was mixed with 100 μl of 2% sodium carbonate solution to terminate reaction, and then the amount of liberated p-nitrophenol was colorimetrically measured at a wavelength of 450 nm.
By using 1 mM pNPG containing various sugar (0.1 mM, 1.0 mM, 10 mM) as a substrate, the enzyme was reacted in accordance with the activity measurement method. The numerical values shown in Table 5 indicate the ratio (%) of the measured enzymatic activity to the enzymatic activity under a condition where no sugar is contained.

Data set [2] deals with T1, crude AaBGL1. As to the kind of experiment: Substrate specificity. The conditions noted are these: 0.5% (w/v) ICOS, 0.5% (w/v) cellobiose, 1 mM pNPG, 1 mM pNP-cellobiose; for Specific activity: pH 4.5, 37° C., 10 minutes; for Relative activity: relative to cellobiose. The data set is classed as biochemical. Set-up: P3 secretion signal (N, cleaved yes); made in house; host or cells: Schizosaccharomyces pombe ASP3326 strain (transformed with pSL6P3AaBGL1); culture supernatant, ammonium sulfate treatment and ultrafiltration, crude enzyme. On the procedure: Measured in accordance with the activity measurement method by using various substrates. The specific activities and relative activities of the enzyme to each of 0.5% (w/v) ICOS, 0.5% (w/v) cellobiose, 1 mM pNPG, and 1 mM pNP-cellobiose are shown in Table 6.
To 100 μl of 2 mM p-nitrophenyl-β-D-cellobioside (hereinafter referred to as pNP-cellobiose), 10 μl of 1 M sodium acetate buffer solution (pH 4.5) and 40 μl of water were added, followed by addition of 50 μl of the diluted enzyme sample to cultivate for 10 minutes at 37° C. 100 μl of the reaction mixture was mixed with 100 μl of 2% sodium carbonate solution to terminate reaction, and then the amount of liberated p-nitrophenol was colorimetrically measured at a wavelength of 450 nm.
The amount of enzyme that produces 1 μmol of p-nitrophenol per minute was defined as 1 U.
(§1) To 100 μl of 1% cellobiose solution, 10 μl of 1M sodium acetate buffer solution (pH 4.5) was added, followed by addition of 90 μl of the diluted enzyme sample to cultivate for 10 minutes at 37° C. 50 μl of 1N HCl was added to terminate reaction, and then 50 μl of a neutralizing solution comprised of 1M Tris solution:2N sodium hydroxide solution in a ratio of 4:1 was added for neutralization to measure the amount of glucose in the mixture by using glucostat method (Glucose kit, Glucose CII-Test Wako, manufactured by Wako Pure Chemical Industries).
The amount of enzyme that produces 1 μmol of glucose per minute was defined as 1 U.
as §1, with “insoluble cellooligosaccharide (hereinafter referred to as ICOS)” for “cellobiose”

A short description of data set [3]: Optimal temperature test of the crude enzyme. The data set is classed as biochemical. The note with it: 1 mM pNPG, 50 mM acetate buffer pH 4.5, 10 minutes. The protocol: By using 1 mM pNPG as a substrate and 50 mM acetate buffer solution (pH 4.5), the enzyme was reacted for 10 minutes at each temperature. […] (FIG. 3).
Data set [4] in a line: Thermostability test. The data set is classed as physicochemical. The conditions noted are these: crude enzyme, treated at each temperature for 10 minutes. The protocol: The enzyme was treated at each temperature for 10 minutes, and then reacted by using 1 mM pNPG as a substrate and 50 mM acetate buffer solution (pH 4.5). […] (FIG. 5).
With regard to the each culture supernatant, the thermostability test was carried out in accordance with the thermostability measurement method described in Test Example 7 at a temperature of from 50 to 75° C.
With regard to the each purified sample, the thermostability test was carried out in accordance with the thermostability measurement method described in Test Example 7 at a temperature of from 50 to 75° C.

Data set [5] is described as follows: Glucose inhibition test. The data set is classed as biochemical. The note with it: 1 mM pNPG. The protocol:
With regard to glucose inhibition, the crude enzyme obtained in Test Example 6 was compared with a commercially available β-glucosidase Novozyme 188 (manufactured by Novozymes). The glucose inhibition activity was measured in accordance with the activity measurement method by using 1 mM pNPG as a substrate and adding glucose to the reaction mixture in a concentration of from 0 to 100 mM. The reaction temperature was 37° C., the pH was 4.5, and the reaction time was 10 minutes. The other reaction conditions were the same as in the activity measurement method described in Test Example 4.
With regard to the each culture supernatant, the glucose inhibition activity was measured in accordance with the activity measurement method, by using 1 mM pNPG as a substrate and adding from 0 to 100 mM of glucose to the reaction mixture.

As for `OC[C@H]1O[C@H](O[C@H]2[C@H](O)[C@@H](O)[C@H](O)O[C@@H]2CO)[C@H](O)[C@@H](O)[C@@H]1O` [Maltose], the “inhibition of crude AaBGL1 by the sugar (in words)” value (“inhibition of crude AaBGL1” below) in data set [1] is listed as “inhibited”. Also, the “ratio of enzymatic activity to activity without sugar” value (from here on “ratio … to activity without sugar”) came out at 99% in data set [1] (sugar concentration 0.1 mM), 93% in data set [1] (sugar concentration 1.0 mM) and 68% in data set [1] (sugar concentration 10 mM).

For `OC[C@H]1O[C@@H](O[C@H]2[C@H](O)[C@@H](O)C(O)O[C@@H]2CO)[C@H](O)[C@@H](O)[C@H]1O` (stereo partly drawn) [Lactose], the “inhibition of crude AaBGL1” value in data set [1] is reported as “not substantially inhibited”. The “ratio … to activity without sugar” value was 99% in data set [1] (sugar concentration 0.1 mM), 100% in data set [1] (sugar concentration 1.0 mM) and 100% in data set [1] (sugar concentration 10 mM).

Regarding `O=C[C@H](O)[C@@H](O)[C@@H](O)[C@H](O)CO` [Galactose], in data set [1], the “inhibition of crude AaBGL1” value was “not substantially inhibited”. For the same molecule, the “ratio … to activity without sugar” value in data set [1] (sugar concentration 0.1 mM) was 97%; in data set [1] (sugar concentration 1.0 mM) it was 98%; in data set [1] (sugar concentration 10 mM), 101%.

Turning to `O=[N+]([O-])c1ccc(O[C@@H]2O[C@H](CO)[C@@H](O)[C@H](O)[C@H]2O)cc1` [pNPG, p-nitrophenyl-β-D-glucoside], in data set [2], the Specific activity worked out at 25.7 U/mg and the Relative activity worked out at 61%.

Turning to `O=[N+]([O-])c1ccc(O[C@@H]2O[C@H](CO)[C@@H](O[C@@H]3O[C@H](CO)[C@@H](O)[C@H](O)[C@H]3O)[C@H](O)[C@H]2O)cc1` [pNP-cellobiose, p-nitrophenyl-β-D-cellobioside], in data set [2], the Specific activity was determined as 9.3 U/mg and the Relative activity was 22%.

On to `OC[C@@H](O)[C@@H](O)[C@H](O)[C@@H](O)CO` [Sorbitol], for which the “inhibition of crude AaBGL1” value in data set [1] is recorded as “not substantially inhibited”. Further, the “ratio … to activity without sugar” value in data set [1] (sugar concentration 0.1 mM) was found to be 98%; in data set [1] (sugar concentration 1.0 mM), 99%; in data set [1] (sugar concentration 10 mM) it was 101%.

As for `O=C[C@H](O)[C@@H](O)[C@H](O)CO` [Xylose], in data set [1], the “inhibition of crude AaBGL1” value is “not substantially inhibited”. The “ratio … to activity without sugar” value in data set [1] (sugar concentration 0.1 mM) stood at 98%; in data set [1] (sugar concentration 1.0 mM) it was 99%; in data set [1] (sugar concentration 10 mM) it was 100%.

In data set [2], `O=C[C@H](O)[C@@H](O)[C@H](O[C@@H]1O[C@H](CO)[C@@H](O)[C@H](O)[C@H]1O)[C@H](O)CO` [Cellobiose] returned a Specific activity of 42.1 U/mg and a Relative activity of 100%.

In the case of `O=C(CO)[C@@H](O)[C@H](O)[C@H](O)CO` [Fructose], the “inhibition of crude AaBGL1” value in data set [1] is listed as “not substantially inhibited”. Also, the “ratio … to activity without sugar” value came to 99% in data set [1] (sugar concentration 0.1 mM), 106% in data set [1] (sugar concentration 1.0 mM) and 115% in data set [1] (sugar concentration 10 mM).

`OC[C@H]1O[C@@](CO)(O[C@H]2O[C@H](CO)[C@@H](O)[C@H](O)[C@H]2O)[C@@H](O)[C@@H]1O` [Sucrose]: the “inhibition of crude AaBGL1” value in data set [1] is “not substantially inhibited”. The “ratio … to activity without sugar” value came to 96% in data set [1] (sugar concentration 0.1 mM), 99% in data set [1] (sugar concentration 1.0 mM) and 98% in data set [1] (sugar concentration 10 mM).

B1: AaBGL1: β-glucosidase 1 of Aspergillus aculeatus F-50 secreted by S. pombe ASP3326 strain, crude enzyme after ammonium sulfate and ultrafiltration (protein, listed as Aspergillus aculeatus)
chain: DELAFSPPFYPSPWANGQGEWAEAYQRAVAIVSQMTLDEKVNLTTGTGWELEKCVGQTGGVPRLNIGGMCLQDSPLGIRDSDYNSAFPAGVNVAATWDKNLAYLRGQAMGQEFSDKGIDVQLGPAAGPLGRSPDGGRNWEGFSPDPALTGVLFAETIKGIQDAGVVATAKHYILNEQEHFRQVAEAAGYGFNISDTISSNVDDKTIHEMYLWPFADAVRAGVGAIMCSYNQINNSYGCQNSYTLNKLLKAELGFQGFVMSDWGAHHSGVGSALAGLDMSMPGDITFDSATSFWGTNLTIAVLNGTVPQWRVDDMAVRIMAAYYKVGRDRLYQPPNFSSWTRDEYGFKYFYPQEGPYEKVNHFVNVQRNHSEVIRKLGADSTVLLKNNNALPLTGKERKVAILGEDAGSNSYGANGCSDRGCDNGTLAMAWGSGTAEFPYLVTPEQAIQAEVLKHKGSVYAITDNWALSQVETLAKQASVSLVFVNSDAGEGYISVDGNEGDRNNLTLWKNGDNLIKAAANNCNNTIVVIHSVGPVLVDEWYDHPNVTAILWAGLPGQESGNSLADVLYGRVNPGAKSPFTWGKTREAYGDYLVRELNNGNGAPQDDFSEGVFIDYRGFDKRNETPIYEFGHGLSYTTFNYSGLHIQVLNASSNAQVATETGAAPTFGQVGNASDYVYPEGLTRISKFIYPWLNSTDLKASSGDPYYGVDTAEHVPEGATDGSPQPVLPAGGGSGGNPRLYDELIRVSVTVKNTGRVAGDAVPQLYVSLGGPNEPKVVLRKFDRLTLKPSEETVWTTTLTRRDLSNWDVAAQDWVITSYPKKVHVGSSSRQLPLHAALPKVQ
Consider B1, for which, in data set [3], the optimal temperature result was “about 65 °C”. In addition, the “thermostability: stable until” value in data set [4] was “about 60 °C”. Besides, the “resistance to glucose inhibition (comparison in words)” value in data set [5] (glucose 0 to 100 mM) is “more resistant to glucose inhibition than Novozyme 188”. The IC50 in data set [5] (glucose 0 to 100 mM, 37° C., pH 4.5, 10 minutes, read-out: glucose concentration (I50 value) at which 50% inhibition of the enzymatic activity occurs) was 25 mM. Besides, in data set [5] (20 mM of glucose added), the “activity maintained in the presence of glucose” value is recorded as “at least 50%”.
